Measurements published in ChEMBL document CHEMBL1134819, “Design and synthesis of potent and selective inhibitors of integrin VLA-4” (Bioorg Med Chem Lett, 2001).
Each block holds one compound with its values, some of them ahead of it.

How the values were obtained:
[1] = molecular target: T1, Integrin alpha-4/beta-1 (Homo sapiens, UniProt P05556+P13612); experiment: In vitro Very late antigen 4 cell adhesion inhibitory activity measured by binding of fluorescently labeled Ramos cells to immobilized VCAM-1.; type: cell-based
[2] = molecular target: T2, Integrin alpha-4/beta-7 (Homo sapiens, UniProt P13612+P26010); experiment: (§1) Inhibition of fluorescent Ramos cell adhesion to VCAM-1 by alpha4-beta7 integrin; type: protein-complex assay
T2 sequence (P13612 whole entry): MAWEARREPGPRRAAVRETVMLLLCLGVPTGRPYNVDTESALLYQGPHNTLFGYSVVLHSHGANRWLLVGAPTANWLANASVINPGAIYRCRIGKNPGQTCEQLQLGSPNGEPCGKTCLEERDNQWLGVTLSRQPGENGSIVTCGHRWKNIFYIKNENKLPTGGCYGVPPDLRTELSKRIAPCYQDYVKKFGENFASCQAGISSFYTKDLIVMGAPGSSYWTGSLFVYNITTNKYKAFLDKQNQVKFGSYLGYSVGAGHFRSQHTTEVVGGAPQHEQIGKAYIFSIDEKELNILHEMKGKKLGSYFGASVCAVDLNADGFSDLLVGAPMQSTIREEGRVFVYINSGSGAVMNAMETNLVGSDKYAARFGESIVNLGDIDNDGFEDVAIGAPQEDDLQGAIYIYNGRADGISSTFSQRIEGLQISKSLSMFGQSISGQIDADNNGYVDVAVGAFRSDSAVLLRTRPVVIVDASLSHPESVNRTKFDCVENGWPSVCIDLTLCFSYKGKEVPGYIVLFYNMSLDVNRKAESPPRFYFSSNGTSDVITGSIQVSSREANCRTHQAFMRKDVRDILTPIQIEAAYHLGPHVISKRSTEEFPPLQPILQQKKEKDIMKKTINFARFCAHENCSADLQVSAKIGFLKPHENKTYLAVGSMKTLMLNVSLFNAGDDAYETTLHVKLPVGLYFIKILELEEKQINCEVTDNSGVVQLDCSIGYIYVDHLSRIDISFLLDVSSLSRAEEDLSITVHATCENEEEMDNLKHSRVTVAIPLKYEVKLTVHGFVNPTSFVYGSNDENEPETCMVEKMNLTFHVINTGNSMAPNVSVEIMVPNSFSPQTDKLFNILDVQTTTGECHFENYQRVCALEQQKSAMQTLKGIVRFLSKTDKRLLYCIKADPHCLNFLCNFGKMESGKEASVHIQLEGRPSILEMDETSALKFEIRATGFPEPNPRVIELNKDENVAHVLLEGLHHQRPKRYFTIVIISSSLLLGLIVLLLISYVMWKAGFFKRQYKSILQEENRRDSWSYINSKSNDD
T2 sequence (P26010 whole entry): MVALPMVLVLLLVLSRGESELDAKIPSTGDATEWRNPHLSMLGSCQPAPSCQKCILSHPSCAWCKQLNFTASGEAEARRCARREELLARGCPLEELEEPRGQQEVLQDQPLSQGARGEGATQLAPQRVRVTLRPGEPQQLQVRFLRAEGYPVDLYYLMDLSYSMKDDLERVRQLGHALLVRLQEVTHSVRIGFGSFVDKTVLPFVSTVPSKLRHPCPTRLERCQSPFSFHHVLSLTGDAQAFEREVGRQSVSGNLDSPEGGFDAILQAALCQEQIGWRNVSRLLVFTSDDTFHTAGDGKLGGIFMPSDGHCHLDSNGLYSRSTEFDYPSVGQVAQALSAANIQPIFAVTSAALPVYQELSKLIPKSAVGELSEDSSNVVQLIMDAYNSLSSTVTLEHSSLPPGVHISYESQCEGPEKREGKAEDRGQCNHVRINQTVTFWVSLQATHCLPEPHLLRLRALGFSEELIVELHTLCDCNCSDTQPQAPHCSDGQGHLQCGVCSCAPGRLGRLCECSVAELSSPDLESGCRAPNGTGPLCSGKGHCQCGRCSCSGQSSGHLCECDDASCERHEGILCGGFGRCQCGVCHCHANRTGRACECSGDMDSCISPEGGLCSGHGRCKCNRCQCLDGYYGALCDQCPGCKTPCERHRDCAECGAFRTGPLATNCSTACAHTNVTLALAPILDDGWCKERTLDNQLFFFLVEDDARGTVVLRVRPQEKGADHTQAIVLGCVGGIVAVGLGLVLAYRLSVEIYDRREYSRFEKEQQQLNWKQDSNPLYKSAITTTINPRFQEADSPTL

[3] = molecular target: Integrin alpha-4/beta-1, Rattus norvegicus; experiment: Inhibition of fluorescent Ramos cell adhesion to VCAM-1 by rat Very late antigen 4 (VLA-4) integrin
[4] = molecular target: Integrin alpha-5/beta-1 (Homo sapiens, UniProt P05556+P08648); experiment: Inhibition of fluorescent Ramos cell adhesion to fibronectin by Very late antigen 5 (VLA-5); type: functional, cell-based
[5] = molecular target: Integrin alpha-4/beta-1, Mus musculus; experiment: Inhibition of fluorescent Ramos cell adhesion to VCAM-1 by mouse Very late antigen 4 (VLA-4) integrin
[6] = molecular target: T1, Integrin alpha-4/beta-1; experiment: Inhibition of fluorescent Ramos cell adhesion to fibronectin by Very late antigen 4 (VLA-4); type: cell-based
[7] = Inhibition of fluorescent Ramos cell adhesion to ICAM-1 by mouse Mac-1 integrin; type: functional, cell-based
[8] = Inhibition of fluorescent Ramos cell adhesion to vitronectin by alpha-V-beta-3-alphaV/beta-5 integrins; type: functional, cell-based, Homo sapiens
[9] = molecular target: T2, Integrin alpha-4/beta-7; experiment: as §1; type: cell-based
[10] = molecular target: Integrin alpha-4/beta-1, Mus musculus; experiment: Inhibition of fluorescent Ramos cell adhesion to VCAM-1 by mouse Very late antigen 4 (VLA-4) integrin; remark: listed apart in the source

T1 sequence (P05556 whole entry, one chain of several): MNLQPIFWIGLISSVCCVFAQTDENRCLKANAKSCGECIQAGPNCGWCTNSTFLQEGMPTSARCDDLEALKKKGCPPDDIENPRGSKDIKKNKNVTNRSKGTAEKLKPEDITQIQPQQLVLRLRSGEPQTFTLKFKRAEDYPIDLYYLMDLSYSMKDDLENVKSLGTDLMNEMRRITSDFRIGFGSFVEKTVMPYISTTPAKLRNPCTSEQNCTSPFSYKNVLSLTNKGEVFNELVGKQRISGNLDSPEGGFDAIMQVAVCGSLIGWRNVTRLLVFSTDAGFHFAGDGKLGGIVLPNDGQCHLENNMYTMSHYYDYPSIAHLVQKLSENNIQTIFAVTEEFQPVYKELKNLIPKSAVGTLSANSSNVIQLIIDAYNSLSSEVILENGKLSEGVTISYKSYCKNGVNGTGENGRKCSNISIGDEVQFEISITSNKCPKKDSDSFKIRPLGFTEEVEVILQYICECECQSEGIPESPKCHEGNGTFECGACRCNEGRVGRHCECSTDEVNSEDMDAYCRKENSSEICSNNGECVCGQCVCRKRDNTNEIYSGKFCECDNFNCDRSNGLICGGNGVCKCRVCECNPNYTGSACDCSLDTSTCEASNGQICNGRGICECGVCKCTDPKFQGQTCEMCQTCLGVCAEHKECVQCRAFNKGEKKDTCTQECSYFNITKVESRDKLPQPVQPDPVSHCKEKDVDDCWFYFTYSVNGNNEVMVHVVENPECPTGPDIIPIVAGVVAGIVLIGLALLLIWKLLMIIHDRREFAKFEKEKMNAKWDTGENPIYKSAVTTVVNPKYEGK
Chain of Integrin alpha-5/beta-1 (P05556 21-798 limits assumed): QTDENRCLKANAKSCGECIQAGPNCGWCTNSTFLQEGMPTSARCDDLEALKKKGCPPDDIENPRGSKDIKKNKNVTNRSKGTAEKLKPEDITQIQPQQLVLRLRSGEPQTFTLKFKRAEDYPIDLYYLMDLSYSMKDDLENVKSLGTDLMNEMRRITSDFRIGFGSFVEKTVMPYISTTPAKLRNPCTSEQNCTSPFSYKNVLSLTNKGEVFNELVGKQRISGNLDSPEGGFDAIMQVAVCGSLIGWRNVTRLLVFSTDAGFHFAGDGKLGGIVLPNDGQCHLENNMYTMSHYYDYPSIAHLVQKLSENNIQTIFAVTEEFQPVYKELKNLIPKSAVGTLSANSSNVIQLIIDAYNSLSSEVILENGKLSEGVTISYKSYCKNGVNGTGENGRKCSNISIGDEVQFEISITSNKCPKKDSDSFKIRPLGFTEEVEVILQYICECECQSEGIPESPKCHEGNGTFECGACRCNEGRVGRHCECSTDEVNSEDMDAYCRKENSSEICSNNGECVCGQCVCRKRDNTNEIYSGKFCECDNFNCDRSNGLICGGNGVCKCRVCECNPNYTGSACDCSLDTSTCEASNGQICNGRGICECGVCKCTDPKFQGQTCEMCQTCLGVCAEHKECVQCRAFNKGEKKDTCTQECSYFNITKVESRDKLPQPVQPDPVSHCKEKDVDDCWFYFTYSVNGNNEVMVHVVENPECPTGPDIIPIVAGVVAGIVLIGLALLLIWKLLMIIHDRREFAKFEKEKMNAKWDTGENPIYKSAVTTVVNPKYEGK
Chain of Integrin alpha-5/beta-1 (P08648 42-894 limits assumed): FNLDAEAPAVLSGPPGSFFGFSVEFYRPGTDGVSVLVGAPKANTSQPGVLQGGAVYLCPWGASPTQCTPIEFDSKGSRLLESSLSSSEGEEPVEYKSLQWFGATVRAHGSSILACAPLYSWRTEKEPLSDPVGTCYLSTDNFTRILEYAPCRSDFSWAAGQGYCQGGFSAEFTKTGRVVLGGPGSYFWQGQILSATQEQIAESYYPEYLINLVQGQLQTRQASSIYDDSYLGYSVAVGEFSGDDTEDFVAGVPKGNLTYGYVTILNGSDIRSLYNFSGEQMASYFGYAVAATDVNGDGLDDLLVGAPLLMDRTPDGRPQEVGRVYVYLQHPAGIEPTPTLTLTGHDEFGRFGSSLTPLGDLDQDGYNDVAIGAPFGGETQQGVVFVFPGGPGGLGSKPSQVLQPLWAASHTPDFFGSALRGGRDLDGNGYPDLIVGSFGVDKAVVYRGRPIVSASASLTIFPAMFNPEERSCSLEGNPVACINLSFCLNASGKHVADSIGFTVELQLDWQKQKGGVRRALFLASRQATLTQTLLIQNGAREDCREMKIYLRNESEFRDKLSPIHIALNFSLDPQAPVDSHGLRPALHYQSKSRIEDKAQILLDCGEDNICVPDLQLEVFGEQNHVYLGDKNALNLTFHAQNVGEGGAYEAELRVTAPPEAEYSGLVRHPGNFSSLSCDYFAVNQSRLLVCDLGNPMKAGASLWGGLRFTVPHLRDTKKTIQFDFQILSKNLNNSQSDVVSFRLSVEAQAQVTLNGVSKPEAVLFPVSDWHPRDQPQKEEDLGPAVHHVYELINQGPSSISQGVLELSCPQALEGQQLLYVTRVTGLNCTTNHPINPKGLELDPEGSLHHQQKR
Chain of Integrin alpha-5/beta-1 (P08648 895-1049 limits assumed): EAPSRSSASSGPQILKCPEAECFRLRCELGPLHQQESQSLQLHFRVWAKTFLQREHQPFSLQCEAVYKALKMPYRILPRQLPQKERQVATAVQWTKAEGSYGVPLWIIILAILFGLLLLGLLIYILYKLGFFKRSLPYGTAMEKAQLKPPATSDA

SMILES: COCCCN(CC(=O)N[C@@H](CC(=O)O)c1ccccc1)C(=O)Cc1ccc(NC(=O)Nc2ccccc2C)cc1
IC50 [2]: > 100000 nM
IC50 [3]: 24.5 nM
IC50 [1]: 11.7 nM
IC50 [4]: > 500000 nM
IC50 [5]: 21.7 nM
IC50 [6]: 14.4 nM
IC50 [7]: > 500000 nM
IC50 [8]: > 100000 nM

SMILES: Cc1ccccc1NC(=O)Nc1ccc(CC(=O)N[C@H](CC(=O)N[C@@H](CC(=O)O)c2ccccc2)CC(C)C)cc1
IC50 [1]: 7300 nM

SMILES: Cc1ccccc1NC(=O)Nc1ccc(CC(=O)N[C@@H](CC(C)C)C(=O)N[C@@H](CC(=O)O)c2ccc3c(c2)OCO3)cc1
IC50 [1]: 3 nM

SMILES: C=CCN(CC(=O)O)NC(=O)[C@@H](CC(C)C)NC(=O)Cc1ccc(NC(=O)Nc2ccccc2C)cc1
IC50 [1]: 11000 nM

SMILES: CCOC(=O)C[C@H](NC(=O)CN(CCCOC)C(=O)Cc1ccc(NC(=O)Nc2ccccc2C)cc1)c1ccc(OC)cc1
IC50 [1]: 75000 nM

SMILES: Cc1ccccc1NC(=O)Nc1ccc(CC(=O)N[C@H](CC(C)C)C(=O)N(CCC(=O)O)CCc2ccccc2)cc1
IC50 [1]: 37000 nM

SMILES: COCCCN(CC(=O)N[C@@H](CC(=O)O)c1ccc(OC)c(OC)c1)C(=O)Cc1ccc(NC(=O)Nc2ccccc2C)cc1
IC50 [2]: > 100000 nM
IC50 [3]: 21.6 nM
IC50 [1]: 7.1 nM
IC50 [4]: > 500000 nM
IC50 [5]: 27.3 nM
IC50 [6]: 13.4 nM
IC50 [7]: > 500000 nM
IC50 [8]: > 100000 nM

SMILES: Cc1ccccc1NC(=O)Nc1ccc(CC(=O)N(CCC(C)C)CC(=O)N[C@@H](CC(=O)O)c2ccccc2)cc1
IC50 [1]: 29 nM

SMILES: COCCCN(CC(=O)N[C@@H](CC(=O)O)c1ccc(OC)cc1)C(=O)Cc1ccc(NC(=O)Nc2ccccc2C)cc1
IC50 [9]: 6140 nM
IC50 [3]: 27.2 nM
IC50 [1]: 4.7 nM
IC50 [4]: > 500000 nM
IC50 [5]: 51.9 nM
IC50 [6]: 36 nM
IC50 [7]: > 500000 nM
IC50 [8]: > 100000 nM

SMILES: C/C=C/[C@H](CC(=O)O)NC(=O)CN(CCCOC)C(=O)Cc1ccc(NC(=O)Nc2ccccc2C)cc1
IC50 [2]: > 100000 nM
IC50 [3]: 20.5 nM
IC50 [1]: 15.4 nM
IC50 [10]: 7.7 nM
IC50 [4]: > 500000 nM
IC50 [6]: 7.9 nM
IC50 [7]: > 500000 nM
IC50 [8]: 59000 nM

More lines, in order of falling IC50 [1], values ahead:

IC50 [1]: 262000 nM
SMILES: Cc1ccccc1NC(=O)Nc1ccc(CC(=O)N[C@@H](CC(=O)N[C@@H](CC(=O)O)c2ccccc2)CC(C)C)cc1

IC50 [1]: 247000 nM
SMILES: Cc1ccccc1NC(=O)Nc1ccc(CC(=O)N[C@H](CC(=O)N(CC(=O)O)Cc2ccccc2)CC(C)C)cc1

IC50 [1]: 103000 nM
SMILES: C/C=C/[C@@H](CC(=O)O)NC(=O)C[C@@H](CC(C)C)NC(=O)Cc1ccc(NC(=O)Nc2ccccc2C)cc1

IC50 [1]: 6400 nM
SMILES: Cc1ccccc1NC(=O)Nc1ccc(CC(=O)N[C@H](CC(=O)N[C@@H](C(=O)O)c2ccccc2)CC(C)C)cc1

IC50 [1]: 5900 nM
SMILES: C=CCC(CC(=O)O)NC(=O)N(CC(C)C)NC(=O)Cc1ccc(NC(=O)Nc2ccccc2C)cc1 (centres undefined)

IC50 [1]: 2900 nM
SMILES: Cc1ccccc1NC(=O)Nc1ccc(CC(=O)NN(CC(C)C)C(=O)NC(CC(=O)O)c2ccccc2)cc1 (centres undefined)

IC50 [1]: 98 nM
SMILES: Cc1ccccc1NC(=O)Nc1ccc(CC(=O)N(CCC(C)C)CC(=O)N(CCC(=O)O)CCc2ccccc2)cc1

IC50 [1]: 45 nM
SMILES: C/C=C/[C@H](CC(=O)O)NC(=O)CN(CCC(C)C)C(=O)Cc1ccc(NC(=O)Nc2ccccc2C)cc1

IC50 [1]: 20 nM
SMILES: COc1ccc([C@H](CC(=O)O)NC(=O)CN(CCC(C)C)C(=O)Cc2ccc(NC(=O)Nc3ccccc3C)cc2)cc1OC

IC50 [1]: 16.5 nM
SMILES: C=CC[C@H](CC(=O)O)NC(=O)[C@H](CC(C)C)NC(=O)Cc1ccc(NC(=O)Nc2ccccc2C)cc1

IC50 [1]: 1.3 nM
SMILES: COCCCCN(CC(=O)N[C@@H](CC(=O)O)c1ccc(OC)c(OC)c1)C(=O)Cc1ccc(NC(=O)Nc2ccccc2C)cc1
